PMC12741294, “Phenazine 5,10-dioxide analogues as potential therapeutics in AML: Efficacy on patient-derived blasts, in zebrafish larvae xenografts and synergy with venetoclax” (Translational Oncology, 2025)
Where two headings read alike, the source gives them in different places.

How the values were obtained:
MOLM-13 [1] = assay: WST-1 metabolic activity and Bliss synergy with VTX, MOLM-13; format: cell-based, human; conditions: for Mean Bliss interaction index (synergy score): Cpd 1 + VTX, all tested combinations
Method: (§1) To study the combination effect of phenazine 5,10-dioxides and VTX in AML cell lines, the cells were seeded in 96-well plates at 35,000 cells per well for 24-hour experiments or 20,000 cells per well for 48-hour experiments. Phenazine 5,10-dioxides and VTX, alone or in combination, were added in desired concentrations and cell plates incubated for 24 and 48 h. Thereafter, WST-1 was added to each well according to the manufacturer’s instructions and incubated for two hours. Absorbance was measured at 450 nm with 620 nm reference wavelength in a Wallac EnVision® 2130 multilabel plate reader, and this value was used to calculate relative metabolic activity compared to untreated cells. The cells were next fixed in 2 % formaldehyde with 0.01 mg/ml Hoechst 33,342 dye dissolved in PBS. Nuclear morphology was studied using a Nikon Diaphot 300 microscope to confirm that metabolic activity correlated with the presence of apoptotic nuclei (Supplementary Figure 1).
(§2) To calculate drug interaction, cell metabolic activity results were plotted into the interaction calculation software SynergyFinder+ [31], and Bliss independence score was used to calculate synergy.

AML patient blasts = assay: Cell death of patient-derived AML blasts, Annexin V/propidium iodide flow cytometry, 24 h; format: cell-based, human; conditions: compared with Cpd 3, 6, 9
Text: Blasts from 61 non-selected patients were used in this study. Supplementary Table 1 presents the patient information, classification, and genetic aberration of the blasts. Peripheral blood mononuclear cells (PBMC) from healthy volunteers were obtained from freshly drawn peripheral blood from the Department of Immunology and Transfusion Medicine, Haukeland University Hospital, Bergen, Norway. AML blasts and PBMCs were isolated by density gradient separation of peripheral blood. The patient samples contained at least 95 % leukemic blasts after isolation. Bone marrow (BM) aspirate from a healthy donor was kindly provided by Professor BT Gjertsen, Dept. Clinical Science, University of Bergen (REK Vest 2012/2247). The patient blasts were cultured in StemSpan medium supplemented with SCF, Flt-3 ligand, and G-CSF, each at a final concentration of 20 ng/mL [22, 23], treated with phenazine 5,10-dioxides or daunorubicin (DNR) for 24 h before cell death was assessed by flow-cytometric analyses as described previously. Viable cells were defined as Annexin V/propidium iodide double negative cells.

MOLM-13 [2] = system: MOLM-13; parameters: method as in PMID 34124675; conditions: ref [6]; cited from earlier work
AML cell lines = assay: Preliminary combination of Cpd 1 with AML drugs; format: cell-based, human; conditions: in combination with DNR, cytarabine and etoposide, data not shown
zebrafish larvae [3] = assay: Toxicity in zebrafish larvae (viability, MTD, morphology); format: in vivo; conditions: for Melanocyte abnormalities: wild-type AB-strain zebrafish larvae
Method: Phenazine 5,10-dioxides were dissolved in DMSO to give final concentrations between 5 and 20 mM and administered to the zebrafish larvae by diluting the stock solutions in the embryo medium. All compounds were tested up to a maximal concentration of 100 µM. […]
(§3) Zebrafish larvae heart rate was analysed as described by Førde et al.. To examine zebrafish larvae for morphological abnormalities, they were imaged using a Nikon Diaphot 300 inverted microscope fitted with a Nikon DS-Fi3 microscope camera and DS-L4 camera control unit.

MOLM-13 [4] = assay: Cytotoxicity towards MOLM-13 cells (EC50); format: cell-based, human; conditions: no reference mark in Table 3
Method: Table 3 Toxicity of phenazine 5,10-dioxides in zebrafish larvae. Maximum tolerated doses and observed morphological alterations in zebrafish larvae caused by phenazine 5,10-dioxides dissolved in embryo medium for 48 h. Cpd: compound. MTD: maximum tolerated dose. a: EC50 values from, –: not observed. | column: MOLM-13 EC50 (µM)

[5] = parameters: method as in PMID 38778732; conditions: patients receiving 400 mg VTX as a single dosage; ref [43]; cited from earlier work
[6] = ref [29]; cited from earlier work
[7] = system: xenograft MOLM-13 cells in zebrafish larvae; assay: Tumour burden of xenograft MOLM-13 cells in zebrafish larvae; format: in vivo; conditions: VTX 4 nL 50 µM intravenous injection; 24 h; p < 0.001
Method: Prior to transplantation into zebrafish larvae, MOLM-13 cells were stained with the fluorescent marker CellTracker™ Deep Red. The cell suspension was centrifuged at 300 relative centrifugal force (RCF) for 5 min, and the medium removed. Thereafter, the cells were resuspended in serum-free RPMI-1640 medium containing 1.5 µM CellTracker™ Deep Red and incubated for 30 min at 37 °C. Excess dye was removed by centrifugation for five minutes at 300 RCF, removal of the medium and the cells were resuspended in fresh RPMI-medium to a final concentration of 10 million cells/mL. Intravenous injection of MOLM-13 cells into zebrafish larvae was performed as described in Førde et al.. The zebrafish larvae xenografts were incubated at 31.5 °C.
For quantification of tumour burden in zebrafish larvae a Nikon Ti-E inverted microscope fitted with an Andor Dragonfly 505 spinning disk confocal unit and iXon 888 Life EMCCD camera setup was used. […] The zebrafish larvae were scored based on the number of cells successfully injected and divided into treatment or control groups. […]
The Fiji macro described in [30] was used to determine MOLM-13 cancer cell burden in zebrafish larvae. […] After defining the boundary of the larva and segmentation from the background, the cells are segmented so that individual cells can be quantified (both size and number). […]

OCI-AML3 = assay: WST-1 metabolic activity and Bliss synergy with VTX, OCI-AML3; format: cell-based, human; conditions: VTX alone; 24 h
Method: as §1, §2

zebrafish larvae [8] = assay: Zebrafish larvae heart rate; format: in vivo; conditions: intravenously injected, 4 nL injection, 100 µM; 24 and 48 h
Method: as §3

AML patients = system: AML patients; parameters: method as in PMID 32786187; conditions: ref [14]; cited from earlier work
[9] = dissolved in embryo medium for 48 h
[10] = dissolved in embryo medium for 48 h, concentration from which observed

SMILES: [O-][n+]1c2cccc(O)c2[n+]([O-])c2cccc(O)c21 [Cpd 1, 1,6-dihydroxyphenazine 5,10-dioxide]
- Mean Bliss interaction index (synergy score) (MOLM-13 [1]; 24 h): 15.56
- Mean Bliss interaction index (synergy score) (MOLM-13 [1]; 48 h): 10.90
- Potency towards the patient blasts (AML patient blasts): lowest potency
- EC50 (MOLM-13 [2]): 2 ± 0.1 µM
- Drug interaction (AML cell lines): additive effects
- Lethality to zebrafish larvae (zebrafish larvae [3]; 100 µM (highest concentration tested), 48 h): not lethal
- Viability of zebrafish larvae (Fig. 2A annotation) (zebrafish larvae [3]; 48 h of exposure, up to 100 µM): Non-toxic
- MTD (maximum tolerated dose) (zebrafish larvae [3]; [9]): >100 µM
- Melanocyte abnormalities (zebrafish larvae [3]): not observed

SMILES: COc1cccc2c1[n+]([O-])c1cccc(O)c1[n+]2[O-] [Cpd 2, Myxin]
- EC50 (MOLM-13 [2]): 1.4 ± 0.3 µM
- Only concentration that did not cause lethality (zebrafish larvae [3]; 48 h exposure): 5 µM
- MTD (maximum tolerated dose) (zebrafish larvae [3]; [9]): 5 µM
- Pigmentation alterations (zebrafish larvae [3]; [10]): From 10 µM
- Concentration killing zebrafish larvae after six hours (zebrafish larvae [3]; in embryo medium, data not shown): 30000 nM
- Melanocyte abnormalities (zebrafish larvae [3]): caused melanocyte abnormalities

SMILES: COc1cccc2c1[n+]([O-])c1ccccc1[n+]2[O-] [Cpd 10]
- MTD (maximum tolerated dose) (zebrafish larvae [3]; [9]): <10 µM
- Muscle fibre alterations (zebrafish larvae [3]; [10]): From 10 µM
- Pigmentation alterations (zebrafish larvae [3]; [10]): From 10 µM
- Melanocyte abnormalities (zebrafish larvae [3]): caused melanocyte abnormalities
- EC50 (MOLM-13 [4]): 1.4 ± 0.1 µM

SMILES: CC1(C)CCC(CN2CCN(c3ccc(C(=O)NS(=O)(=O)c4ccc(NCC5CCOCC5)c([N+](=O)[O-])c4)c(Oc4cnc5[nH]ccc5c4)c3)CC2)=C(c2ccc(Cl)cc2)C1 [VTX, venetoclax]
- Relative metabolic activity (MOLM-13 [1]; 6 nM VTX alone, 48 h): 59%
- Cmax [5]: ~2500 nM
- Permeability [6]: low permeability
- Cancer cell burden relative to control [7]: reduced cancer cell burden
- Concentration until which no reduction in metabolic activity (OCI-AML3): 6 µM
- Sensitivity of OCI-AML3 cells (OCI-AML3): high resistance
- Heartrate of zebrafish larvae relative to control (zebrafish larvae [8]): No significant differences

SMILES: Nc1ncn([C@@H]2O[C@H](CO)[C@@H](O)[C@H]2O)c(=O)n1 [azacitidine]
- Median overall survival (AML patients): 9.6 months
